Experiments:
A2780 parental cell line = test: A2780 assay, in vitro cytotoxicity (MTT); assay type: cell-based; conditions: Homo sapiens, A2780 cells, 72 hours incubation, absorbance 540 nm
Experimental: (§1) Determination of In Vitro Cytotoxicity
A2780 parental cell line was grown in Dulbecco's Modified Eagles' Media (DMEM) containing ˜10% Foetal Calf Serum (FCS) and ˜1% 200 mM L-Glutamine solution and grown in Corning Cellbind 75 cm^2 flasks.
190 μl cell suspension was added (at 1×10^4) to each well of columns 2 to 11 of a 96 well plate (Nunc 96F flat bottom TC plate). 190 μl of media was added to each well of columns 1 and 12. The media was Dulbecco's Modified Eagles' Media (DMEM) (which included ˜10% Foetal Calf Serum (FCS) and ˜1% 200 mM L-Glutamine solution).
Plates were incubated overnight at 37° C. before addition of drug if cells were adherent. 200 μM of the test compound solutions (in 100% DMSO) were serially diluted across a 96 well plate. Each resulting point was then further diluted 1/10 into sterile distilled water (SDW).
To the cell negative blanks and compound negative control wells, 10% DMSO was added at 5% v/v. Assay plates were incubated for the following durations at 37° C. in 5% CO2 in a humidified incubator for 72 hours. Following incubation, MTT solution to a final concentration of […] was added to each well. Plates were then incubated for a further 4 hours at 37° C. in 5% CO2 in a humidified incubator. […]
Plates were read at 540 nm absorbance using an Envision plate reader. Data was analysed using Microsoft Excel and GraphPad Prism and IC50 values obtained.

[1] = system: K562 human chronic myeloid leukaemia cells; test: K562 assay, in vitro cytotoxicity (MTT); assay type: cell-based; conditions: drug incubation 1 hour or 96 hours (not specified which), dose reducing final optical density to 50% of control
Experimental: as §1
K562 human chronic myeloid leukaemia cells were maintained in RPM1 1640 medium supplemented with 10% fetal calf serum and 2 mM glutamine at 37° C. in a humidified atmosphere containing 5% CO2 and were incubated with a specified dose of drug for 1 hour or 96 hours at 37° C. in the dark. The incubation was terminated by centrifugation (5 min, 300 g) and the cells were washed once with drug-free medium. Following the appropriate drug treatment, the cells were transferred to 96-well microtiter plates (10^4 cells per well, 8 wells per sample). Plates were then kept in the dark at 37° C. in a humidified atmosphere containing 5% CO2. The assay is based on the ability of viable cells to reduce a yellow soluble tetrazolium salt, 3-(4,5-dimethylthiazol-2-yl)-2,5-diphenyl-2H-tetrazolium bromide (MTT, Aldrich-Sigma), to an insoluble purple formazan precipitate. Following incubation of the plates for 4 days (to allow control cells to increase in number by approximately 10 fold), 20 μL of MTT solution (5 mg/mL in phosphate-buffered saline) was added to each well and the plates further incubated for 5 h. […] The optical density was then read at a wavelength of 550 nm on a Titertek Multiscan ELISA plate reader, and a dose-response curve was constructed. […]

Row | Structure (SMILES) | IC50 (A2780 parental cell line) | IC50 [1]
1 | COc1ccc(C2=CN3C(=O)c4cc(OC)c(OCCCOc5cc6c(cc5OC)C(=O)N5C=C(c7ccc(N)cc7)C[C@H]5C=N6)cc4N=C[C@@H]3C2)cc1 [Compound 11, (S)-2-(4-aminophenyl)-7-methoxy-8-(3-((S)-7-methoxy-2-(4-methoxyphenyl)-5-oxo-5,11a-dihydro-1H-pyrrolo[2,1-c][1,4]benzodiazepine-8-yloxy)propoxy)-1H-pyrrolo[2,1-c][1,4]benzodiazepine-5(11aH)-one] | 11.7 µM | –
2 | COc1ccc(C2=CN3C(=O)c4cc(OC)c(OCCCCCOc5cc6c(cc5OC)C(=O)N5C=C(c7ccc(N)cc7)C[C@H]5C=N6)cc4N=C[C@@H]3C2)cc1 [Compound 13, (S)-2-(4-aminophenyl)-7-methoxy-8-(5-((S)-7-methoxy-2-(4-methoxyphenyl)-5-oxo-5,11a-dihydro-1H-pyrrolo[2,1-c][1,4]benzodiazepine-8-yloxy)pentyloxy)-1H-pyrrolo[2,1-c][1,4]benzodiazepine-5(11aH)-one] | – | 30 µM
